Experimental data from ChEMBL document CHEMBL4359837, “Discovery of 2-(4-Chloro-3-(trifluoromethyl)phenyl)-N-(4-((6,7-dimethoxyquinolin-4-yl)oxy)phenyl)acetamide (CHMFL-KIT-64) as a Novel Orally Available Potent Inhibitor against Broad-Spectrum Mutants of c-KIT Kinase for Gastrointestinal Stromal Tumors” (J Med Chem, 2019).
Activity calls are given as the source filed them. No cut-off for these calls is given here.

Tests used:
[1] = tested on: Mast/stem cell growth factor receptor Kit (Homo sapiens), P10721 [UNDEFINED MUTATION]; conditions: GISTT1, 0.1 uM
Description: Inhibition of c-KIT 560 to 578 deletion/T670I mutant in human GISTT1 cells assessed as reduction in STAT3 phosphorylation at Y705 residue at 0.1 uM measured after 2 hrs by Western blot analysis

[2] = tested on: Mast/stem cell growth factor receptor Kit (Homo sapiens), P10721 [UNDEFINED MUTATION]; conditions: GISTT1, 0.1 uM; remark: listed apart in the source
Description: Inhibition of c-KIT 560 to 578 deletion mutant in human GISTT1 cells assessed as reduction in c-KIT autophosphorylation at Y703 residue at 0.1 uM measured after 2 hrs by Western blot analysis

[3] = tested on: Mast/stem cell growth factor receptor Kit (Homo sapiens), P10721 [UNDEFINED MUTATION]; conditions: GISTT1, 0.1 uM; remark: listed apart in the source
Description: Inhibition of c-KIT 560 to 578 deletion mutant in human GISTT1 cells assessed as reduction in AKT phosphorylation at S473 residue at 0.1 uM measured after 2 hrs by Western blot analysis

[4] = tested on: Mast/stem cell growth factor receptor Kit (Homo sapiens), P10721 [UNDEFINED MUTATION]; conditions: GISTT1, 0.1 uM; remark: listed apart in the source
Description: Inhibition of c-KIT 560 to 578 deletion mutant in human GISTT1 cells assessed as reduction in pS6 phosphorylation at S235 residue at 0.1 uM measured after 2 hrs by Western blot analysis

[5] = tested on: Mast/stem cell growth factor receptor Kit (Homo sapiens), P10721 [UNDEFINED MUTATION]; conditions: GISTT1, 0.1 uM; remark: listed apart in the source
Description: Inhibition of c-KIT 560 to 578 deletion mutant in human GISTT1 cells assessed as reduction in pS6 phosphorylation at S236 residue at 0.1 uM measured after 2 hrs by Western blot analysis

[6] = tested on: Mast/stem cell growth factor receptor Kit (Homo sapiens), P10721 [UNDEFINED MUTATION]; conditions: GISTT1, 0.1 uM; remark: listed apart in the source
Description: Inhibition of c-KIT 560 to 578 deletion/T670I mutant in human GISTT1 cells assessed as reduction in ERK phosphorylation at T202 residue at 0.1 uM measured after 2 hrs by Western blot analysis

[7] = tested on: Mast/stem cell growth factor receptor Kit (Homo sapiens), P10721 [UNDEFINED MUTATION]; conditions: GISTT1, 0.1 uM; remark: listed apart in the source
Description: Inhibition of c-KIT 560 to 578 deletion/T670I mutant in human GISTT1 cells assessed as reduction in ERK phosphorylation at T204 residue at 0.1 uM measured after 2 hrs by Western blot analysis

[8] = tested on: Mast/stem cell growth factor receptor Kit (Homo sapiens), P10721 [UNDEFINED MUTATION]; conditions: 0.1 uM
Description: Inhibition of c-KIT 560 to 578 deletion/T670I mutant in human GIST5R assessed as reduction in AKT phosphorylation at S473 residue at 0.1 uM measured after 2 hrs by Western blot analysis

[9] = tested on: Mast/stem cell growth factor receptor Kit (Homo sapiens), P10721 [UNDEFINED MUTATION]; conditions: 0.1 uM; remark: listed apart in the source
Description: Inhibition of c-KIT 560 to 578 deletion/T670I mutant in human GIST5R assessed as reduction in ERK phosphorylation at T202 residue at 0.1 uM measured after 2 hrs by Western blot analysis

[10] = tested on: Mus musculus; experiment: Antitumor activity against mouse BAF3(transformed) cells harboring c-KIT D820G mutant implanted in BALB/c nu mouse assessed as tumor growth inhibition administered via oral gavage for 9 days; assay type: functional
[11] = Antitumor activity against mouse BAF3(transformed) cells harboring c-KIT Y823D mutant implanted in BALB/c nu mouse assessed as tumor weight at 80 mg/kg/day, po administered via gavage for 9 days (reference value: 0.96 g); assay type: functional
[12] = target: T1, Platelet-derived growth factor receptor beta (Homo sapiens, UniProt P09619); experiment: Binding affinity to wild-type human partial length PDGFRB (V582 to Y1009 residues) expressed in bacterial expression system assessed as residual binding level at 1 uM by Kinomescan method relative to control
[13] = target: Macrophage colony-stimulating factor 1 receptor (Homo sapiens, UniProt P07333); experiment: Inhibition of recombinant human His-tagged CSF1R cytoplasmic domain (538 to 910 residues) expressed in baculovirus expression system by Z-lyte assay
[14] = target: T1, Platelet-derived growth factor receptor beta; experiment: Inhibition of recombinant human His-tagged PDGFRB cytoplasmic domain (558 to 1106 residues) expressed in baculovirus expression system by Z-lyte assay
[15] = target: Epithelial discoidin domain-containing receptor 1 (Mus musculus) (UniProt Q03146); experiment: Inhibition of DDR1 in mouse BAF3(transformed) cells assessed as growth inhibition after 72 hrs by CCK8 assay
[16] = target: Proto-oncogene tyrosine-protein kinase receptor Ret (Mus musculus) (UniProt P35546); experiment: Inhibition of RET in mouse BAF3(transformed) cells assessed as growth inhibition after 72 hrs by CCK8 assay
[17] = target: T2, Mast/stem cell growth factor receptor Kit (Homo sapiens, UniProt P10721, 560-578DEL/T670I); assay type: cell-based, GISTT1
[18] = target: T2, Mast/stem cell growth factor receptor Kit; assay type: cell-based, GISTT1; remark: listed apart in the source
[19] = target: Mast/stem cell growth factor receptor Kit (Homo sapiens, UniProt P10721, 560-578DEL); assay type: cell-based, GISTT1
[20] = target: T2, Mast/stem cell growth factor receptor Kit; assay type: cell-based, GISTT1; remark: listed apart in the source
[21] = target: T2, Mast/stem cell growth factor receptor Kit
[22] = tested on: GISTT1; assay type: functional, cell-based; conditions: Homo sapiens
[23] = organism: Homo sapiens; assay type: functional, cell-based
[24] = tested on: GISTT1; assay type: functional, cell-based; conditions: Homo sapiens; remark: listed apart in the source
[25] = Half life in Sprague-Dawley rat at 1 mg/kg, iv by LC-MS/MS analysis; assay type: ADME, organism-based; conditions: in vivo
[26] = Cmax in Sprague-Dawley rat at 1 mg/kg, iv by LC-MS/MS analysis; assay type: ADME, organism-based; design: dose 1 mg/kg, route intravenous; conditions: in vivo
[27] = Oral bioavailability in Sprague-Dawley rat at 10 mg/kg by LC-MS/MS analysis; assay type: ADME, organism-based; conditions: in vivo
[28] = AUC (0 to t) in mouse at 1 mg/kg, iv by LC-MS/MS analysis; assay type: ADME, organism-based; conditions: in vivo
[29] = Cmax in mouse at 1 mg/kg, iv by LC-MS/MS analysis; assay type: ADME, organism-based; design: dose 1 mg/kg, route intravenous; conditions: in vivo
[30] = Oral bioavailability in mouse at 10 mg/kg by LC-MS/MS analysis; assay type: ADME, organism-based; conditions: in vivo
[31] = Half life in Beagle dog at 1 mg/kg, iv by LC-MS/MS analysis; assay type: ADME, organism-based, Canis lupus familiaris; conditions: in vivo
[32] = Tmax in Beagle dog at 5 mg/kg, po by LC-MS/MS analysis; assay type: ADME, organism-based, Canis lupus familiaris; conditions: in vivo
[33] = Cmax in Beagle dog at 5 mg/kg, po by LC-MS/MS analysis; assay type: ADME, organism-based, Canis lupus familiaris; design: dose 5 mg/kg, route oral; conditions: in vivo
[34] = Oral bioavailability in Beagle dog at 5 mg/kg by LC-MS/MS analysis; assay type: ADME, organism-based, Canis lupus familiaris; conditions: in vivo
[35] = tested on: Mus musculus; assay type: functional, organism-based; conditions: BALB/c, 80 mg/kg, TDE = time-dependent effect
[36] = tested on: Mus musculus; assay type: functional, organism-based; conditions: BALB/c, 80 mg/kg, TDE = time-dependent effect; remark: listed apart in the source
[37] = tested on: Mus musculus; assay type: functional, organism-based; conditions: BALB/c, 80 mg/kg
[38] = tested on: Mus musculus; assay type: functional, organism-based; conditions: BALB/c, 80 mg/kg; remark: listed apart in the source
[39] = tested on: Mus musculus; assay type: functional, organism-based; conditions: BALB/c, 80 mg/kg; remark: listed apart in the source
[40] = tested on: Mus musculus; assay type: functional, organism-based; conditions: BALB/c, 80 mg/kg; remark: listed apart in the source
[41] = Antitumor activity against mouse BAF3(transformed) cells harboring c-KIT T670I mutant implanted in BALB/c nu mouse assessed as tumor growth inhibition at 100 mg/kg/day, po administered via gavage for 11 days relative to control; assay type: functional; conditions: 264 h, read-out: TGI
[42] = Antitumor activity against mouse BAF3(transformed) cells harboring c-KIT Y823D mutant implanted in BALB/c nu mouse assessed as tumor growth inhibition at 80 mg/kg/day, po administered via gavage for 9 days relative to control; assay type: functional; conditions: 216 h, read-out: TGI
[43] = tested on: Mus musculus; experiment: Antitumor activity against mouse BAF3(transformed) cells harboring c-KIT Y823D mutant implanted in BALB/c nu mouse assessed as tumor growth inhibition administered via oral gavage for 9 days; assay type: functional
[44] = tested on: GISTT1; assay type: functional, Homo sapiens; conditions: Mus musculus, GISTT1, po, 672 h; read-out: TGI
[45] = tested on: GISTT1; assay type: functional, Homo sapiens
[46] = tested on: GISTT1; assay type: functional
[47] = tested on: GISTT1; assay type: functional, Homo sapiens; remark: listed apart in the source
[48] = tested on: GISTT1; assay type: functional, cell-based; conditions: Homo sapiens; remark: listed apart in the source
[49] = tested on: Mast/stem cell growth factor receptor Kit (Homo sapiens), P10721 [T670I]; conditions: Mus musculus
Description: Inhibition of c-KIT T670I mutant in mouse BAF3(transformed) cells assessed as growth inhibition after 72 hrs by CCK8 assay

[50] = tested on: Mast/stem cell growth factor receptor Kit (Homo sapiens), P10721 [V559A]; conditions: Mus musculus
Description: Inhibition of c-KIT V559A mutant in mouse BAF3(transformed) cells assessed as growth inhibition after 72 hrs by CCK8 assay

[51] = tested on: Mast/stem cell growth factor receptor Kit (Homo sapiens), P10721 [V654A]; conditions: Mus musculus
Description: Inhibition of c-KIT V654A mutant in mouse BAF3(transformed) cells assessed as growth inhibition after 72 hrs by CCK8 assay

[52] = tested on: Mast/stem cell growth factor receptor Kit (Homo sapiens), P10721 [UNDEFINED MUTATION]; conditions: GISTT1
Description: Inhibition of c-KIT 560 to 578 deletion mutant in human GISTT1 cells assessed as growth inhibition after 72 hrs by CCK8 assay

Chain of Mast/stem cell growth factor receptor Kit (Homo sapiens), P10721 [UNDEFINED MUTATION] (P10721 whole entry, looked up, change not shown): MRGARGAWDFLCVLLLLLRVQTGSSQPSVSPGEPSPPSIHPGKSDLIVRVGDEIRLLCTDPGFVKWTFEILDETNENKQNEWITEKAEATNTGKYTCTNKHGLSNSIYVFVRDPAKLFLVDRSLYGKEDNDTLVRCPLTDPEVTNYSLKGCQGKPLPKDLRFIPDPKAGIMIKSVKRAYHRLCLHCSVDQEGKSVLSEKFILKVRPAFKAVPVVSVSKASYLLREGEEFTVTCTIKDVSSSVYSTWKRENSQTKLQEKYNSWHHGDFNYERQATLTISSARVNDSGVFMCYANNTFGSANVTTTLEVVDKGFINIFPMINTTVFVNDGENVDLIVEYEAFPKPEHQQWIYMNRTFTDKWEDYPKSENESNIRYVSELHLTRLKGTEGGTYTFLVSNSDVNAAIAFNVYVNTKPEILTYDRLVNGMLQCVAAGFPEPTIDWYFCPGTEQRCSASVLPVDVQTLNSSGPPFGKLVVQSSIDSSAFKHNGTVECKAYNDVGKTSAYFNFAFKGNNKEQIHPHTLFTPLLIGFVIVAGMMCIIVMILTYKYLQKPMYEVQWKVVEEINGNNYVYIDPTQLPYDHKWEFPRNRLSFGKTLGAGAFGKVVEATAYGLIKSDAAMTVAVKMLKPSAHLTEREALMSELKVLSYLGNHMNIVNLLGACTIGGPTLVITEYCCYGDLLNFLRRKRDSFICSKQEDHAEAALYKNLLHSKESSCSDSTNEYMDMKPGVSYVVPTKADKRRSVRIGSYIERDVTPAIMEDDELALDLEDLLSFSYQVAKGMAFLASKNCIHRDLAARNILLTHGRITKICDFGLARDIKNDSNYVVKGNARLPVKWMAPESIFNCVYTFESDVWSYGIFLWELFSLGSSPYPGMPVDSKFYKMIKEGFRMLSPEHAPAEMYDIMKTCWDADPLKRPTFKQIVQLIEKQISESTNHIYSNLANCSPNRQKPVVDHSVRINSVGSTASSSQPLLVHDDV
T2 sequence (P10721 whole entry, looked up, stated change not applied): as the sequence (P10721 whole entry, looked up, change not shown) above
T1 sequence (P09619 whole entry, the tested form may be a part): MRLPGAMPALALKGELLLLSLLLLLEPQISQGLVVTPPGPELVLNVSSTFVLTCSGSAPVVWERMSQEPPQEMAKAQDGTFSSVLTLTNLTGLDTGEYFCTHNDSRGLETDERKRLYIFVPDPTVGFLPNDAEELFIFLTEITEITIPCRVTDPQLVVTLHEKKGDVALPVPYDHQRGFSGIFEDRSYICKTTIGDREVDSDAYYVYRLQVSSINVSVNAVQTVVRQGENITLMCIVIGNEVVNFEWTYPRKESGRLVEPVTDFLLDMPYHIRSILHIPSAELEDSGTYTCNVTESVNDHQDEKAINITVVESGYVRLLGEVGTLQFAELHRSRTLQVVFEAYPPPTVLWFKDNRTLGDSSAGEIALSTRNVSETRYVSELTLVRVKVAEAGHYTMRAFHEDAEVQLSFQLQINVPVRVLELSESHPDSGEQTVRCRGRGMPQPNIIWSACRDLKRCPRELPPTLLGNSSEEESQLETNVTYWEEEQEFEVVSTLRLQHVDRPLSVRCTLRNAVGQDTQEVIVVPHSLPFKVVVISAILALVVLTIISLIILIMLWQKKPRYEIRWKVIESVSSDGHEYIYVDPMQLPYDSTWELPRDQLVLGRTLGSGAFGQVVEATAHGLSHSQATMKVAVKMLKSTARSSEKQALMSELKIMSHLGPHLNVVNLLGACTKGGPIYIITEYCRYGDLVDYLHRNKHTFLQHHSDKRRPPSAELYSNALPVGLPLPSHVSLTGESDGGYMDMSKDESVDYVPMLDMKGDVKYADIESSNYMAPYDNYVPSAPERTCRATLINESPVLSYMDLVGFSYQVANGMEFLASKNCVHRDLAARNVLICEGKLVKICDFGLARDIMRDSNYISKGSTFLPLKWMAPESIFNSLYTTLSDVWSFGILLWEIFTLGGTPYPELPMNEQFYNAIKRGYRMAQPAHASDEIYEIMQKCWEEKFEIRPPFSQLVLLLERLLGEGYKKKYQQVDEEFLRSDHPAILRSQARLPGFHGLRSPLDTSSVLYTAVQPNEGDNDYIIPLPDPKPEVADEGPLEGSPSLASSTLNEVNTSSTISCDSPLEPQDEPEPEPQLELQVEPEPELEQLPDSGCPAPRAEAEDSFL
Chain of Macrophage colony-stimulating factor 1 receptor (P07333 whole entry, the tested form may be a part): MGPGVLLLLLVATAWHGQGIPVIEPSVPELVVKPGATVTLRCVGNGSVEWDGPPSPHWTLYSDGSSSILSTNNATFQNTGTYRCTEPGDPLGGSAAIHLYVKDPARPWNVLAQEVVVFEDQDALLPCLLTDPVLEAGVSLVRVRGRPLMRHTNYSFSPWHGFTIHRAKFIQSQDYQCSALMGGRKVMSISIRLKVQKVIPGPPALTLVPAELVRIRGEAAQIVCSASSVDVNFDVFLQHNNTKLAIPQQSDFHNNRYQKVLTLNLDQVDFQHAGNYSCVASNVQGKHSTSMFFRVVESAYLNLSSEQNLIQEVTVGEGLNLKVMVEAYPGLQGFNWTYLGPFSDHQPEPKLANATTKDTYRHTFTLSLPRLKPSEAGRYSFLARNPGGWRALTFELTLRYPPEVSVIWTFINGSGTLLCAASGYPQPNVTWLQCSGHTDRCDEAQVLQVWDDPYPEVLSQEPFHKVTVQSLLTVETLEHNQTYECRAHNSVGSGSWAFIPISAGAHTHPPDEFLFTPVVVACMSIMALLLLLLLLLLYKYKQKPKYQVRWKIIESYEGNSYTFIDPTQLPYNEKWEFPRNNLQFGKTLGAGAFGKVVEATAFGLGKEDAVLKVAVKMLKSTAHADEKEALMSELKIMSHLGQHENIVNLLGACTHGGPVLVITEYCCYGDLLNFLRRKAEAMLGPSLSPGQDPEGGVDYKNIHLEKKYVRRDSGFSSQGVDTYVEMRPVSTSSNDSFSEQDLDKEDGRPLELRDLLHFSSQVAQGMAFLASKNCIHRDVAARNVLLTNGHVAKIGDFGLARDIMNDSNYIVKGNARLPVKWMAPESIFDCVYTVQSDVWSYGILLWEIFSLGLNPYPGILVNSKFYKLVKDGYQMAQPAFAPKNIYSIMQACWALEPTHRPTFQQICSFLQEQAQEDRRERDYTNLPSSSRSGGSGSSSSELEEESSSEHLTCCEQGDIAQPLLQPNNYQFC
Chain of Epithelial discoidin domain-containing receptor 1 (Mus musculus) (Q03146 whole entry, the tested form may be a part): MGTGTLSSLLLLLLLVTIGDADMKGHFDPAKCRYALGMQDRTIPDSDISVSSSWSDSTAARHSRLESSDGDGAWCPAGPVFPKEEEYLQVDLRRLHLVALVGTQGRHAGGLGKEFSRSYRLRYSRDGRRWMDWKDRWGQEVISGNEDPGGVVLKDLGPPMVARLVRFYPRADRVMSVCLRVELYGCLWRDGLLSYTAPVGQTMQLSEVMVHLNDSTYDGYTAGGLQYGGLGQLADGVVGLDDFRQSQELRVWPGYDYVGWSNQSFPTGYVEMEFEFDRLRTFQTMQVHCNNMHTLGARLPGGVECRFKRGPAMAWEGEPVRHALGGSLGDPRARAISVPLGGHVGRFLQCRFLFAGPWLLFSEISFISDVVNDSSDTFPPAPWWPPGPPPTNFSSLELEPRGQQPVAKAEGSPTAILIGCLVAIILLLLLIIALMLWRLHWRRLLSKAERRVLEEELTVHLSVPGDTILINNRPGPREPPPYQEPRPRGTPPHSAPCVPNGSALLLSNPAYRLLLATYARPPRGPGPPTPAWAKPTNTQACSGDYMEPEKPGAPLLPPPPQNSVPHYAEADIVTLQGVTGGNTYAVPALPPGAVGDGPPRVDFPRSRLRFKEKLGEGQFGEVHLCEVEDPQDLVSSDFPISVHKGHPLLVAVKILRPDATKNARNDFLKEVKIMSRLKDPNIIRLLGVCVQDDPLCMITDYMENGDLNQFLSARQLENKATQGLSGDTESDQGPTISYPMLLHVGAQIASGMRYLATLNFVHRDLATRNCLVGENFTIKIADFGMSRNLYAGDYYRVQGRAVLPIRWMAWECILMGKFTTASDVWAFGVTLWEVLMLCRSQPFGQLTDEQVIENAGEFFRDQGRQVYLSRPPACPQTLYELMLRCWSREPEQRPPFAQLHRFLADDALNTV
Chain of Mast/stem cell growth factor receptor Kit (Homo sapiens), P10721 [V559A] (P10721 whole entry V559A): as the sequence (P10721 whole entry, looked up, change not shown) above, with V559A counted along it
Chain of Mast/stem cell growth factor receptor Kit (Homo sapiens), P10721 [T670I] (P10721 whole entry T670I): as the sequence (P10721 whole entry, looked up, change not shown) above, with T670I counted along it
Chain of Mast/stem cell growth factor receptor Kit (Homo sapiens), P10721 [V654A] (P10721 whole entry V654A): as the sequence (P10721 whole entry, looked up, change not shown) above, with V654A counted along it
Chain of Mast/stem cell growth factor receptor Kit (Homo sapiens, UniProt P10721, 560-578DEL) (P10721 whole entry, looked up, stated change not applied): as the sequence (P10721 whole entry, looked up, change not shown) above

For CCN(CC)CCNC(=O)c1c(C)[nH]c(/C=C2\C(=O)Nc3ccc(F)cc32)c1C [SUNITINIB], the inhibition [1] was “Active”, the inhibition [2] was “Active” and the inhibition [3] was “Active”. The inhibition [4] was “Active”, the inhibition [5] was “Active” and the inhibition [6] was “Active”. For the same molecule, the inhibition [7] was “Active”, the inhibition [8] was “Active” and the inhibition [9] was “Active”.

With COc1cc2nccc(Oc3ccc(NC(=O)Cc4ccc(Cl)c(C(F)(F)F)c4)cc3)c2cc1OC the TGI [10] was “Dose-dependent effect”, the Activity [11] was 0.09 g and the Activity [12] was under 1%. The IC50 [13] was 18 nM, the IC50 [14] was 97 nM and the GI50 [15] was over 1000 nM. For the same molecule, the GI50 [16] was 280 nM, the EC50 [17] was under 100 nM and the EC50 [18] was under 100 nM. It also gave an EC50 [19] of under 100 nM, an EC50 [20] of under 100 nM and an EC50 [21] of under 100 nM. The Activity [22] was “Dose-dependent effect”, the Activity [23] was “Dose-dependent effect” and the Activity [24] was “Dose-dependent effect”. It also gave a half-life [25] of 15.8 h, a Cmax [26] of 660 ng/mL and a bioavailability [27] of 50%. The AUC(0-t) [28] was 2990 ng·h/mL, the Cmax [29] was 520 ng/mL and the bioavailability [30] was 43%. For the same molecule, the half-life [31] was 20.6 h, the Tmax [32] was 5.33 h and the Cmax [33] was 1160 ng/mL. The bioavailability [34] was 81%, the inhibition [35] was “Tde” and the inhibition [36] was “Tde”. For the same molecule, the inhibition [37] was “inactive”, the inhibition [38] was “inactive” and the inhibition [39] was “inactive”. The inhibition [40] was “inactive”, the inhibition in vivo at 100 mg/kg/day [41] was 100% and the inhibition in vivo at 80 mg/kg/day [42] was 90.2%. The TGI [43] was “Dose-dependent effect”, the inhibition in vivo at 20 mg/kg/day [44] was 95.6% and the Activity [45] was 0.2 g. For the same molecule, the TGI ([46]; Homo sapiens, 40 mg/kg) was “Dose-dependent effect”, the inhibition in vivo at 40 mg/kg/day ([46]; Mus musculus, GISTT1, po, 672 h, read-out: TGI) was 76.4% and the Activity [47] was 0.27 g. For the same molecule, the TGI [48] was “Dose-dependent effect”, the GI50 [49] was 4 nM and the GI50 [50] was 21 nM. The GI50 [51] was 320 nM and the GI50 [52] was 6 nM.
